Experimental data taken from patent US20140302217A1, “PRESERVATIVE COMBINATIONS COMPRISING PROPIONIC ACID AND VANILLIN AND/OR CINNAMIC ACID” (Purac Biochem B.V., priority 2011, published 2014).

Experiments:
[1] = test system: Penicillium sp (Pen381); assay: MEA agar plate colony growth test; assay type: cell-based; settings: single component, agar plates
Protocol: (§1) Each experiment existed of 10 MEA agar plates containing a successive amount of component, starting from 0 ppm to the maximal used concentration.
(§2) MEA was prepared by dissolving 20 g of Malt extract (Difco, England), 1 g of Peptone (Becton Dickinson, USA), 20 g of glucose and 20 g of bacteriological agar (No. 1. Oxoid, England) in 11 of dematerialized water. The pH was adjusted to 3.2 by adding 5.9 ml of Hcl 1M after heat sterilization.
(§3) A stock solution was made for each component. The stock was 25 times the maximal used concentration. A successive amount from 0 to 900 μl of these stocks, making the concentration range, was pipetted in 10, 50 ml capped test tubes.
(§4) Subsequently, 25 ml of warm (80-90° C.) MEA agar was pipetted, using a sterile 25 ml pipette, in the tubes and the tubes were vortexed slowly but vigorously. Next, the component containing agar was poured out in 9 cm Petri dishes. Besides single components against single moulds, combinations of propionate with potassium cinnamate or vanillin were tested on solid agar. To prepare these binary combinations 6.25 ml of a 4 times concentrated component was mixed with the other components that was also 4 times concentrated. The mix of components were mixed with 12.5 ml double concentrated MEA to reach the preferred concentrations.
(§5) After the plates were dried a dot was spotted at the backside and in the centre of the petridish 0.5 μl of the mould spore solution was spotted on the agar targeting the dot in the centre. When the drop was dried in, the plates were placed bottom down in the incubator at 25° C.
(§6) The growth of colonies was determined by measurement of the colony diameter at different points in time. The growth curves were converted to dose response curves as described in 2.6.
(§7) The data from the agar plate experiments were obtained by measuring the colony size changes. The change in time was interpreted as growth speed and growth curves were plotted.
(§8) To convert the growth curves to dose response curves the μ Max (maximum growth rate) was calculated per concentration of antimicrobial component. The curves were fitted to a Logistic Dose Response (LDR) Intercept Form (Equation 8013) using Table curve 2D version 5.1

[2] = test system: mould cocktail; assay: combinations of components in model drink in 96-well microtiter plates, visual observation of growth; assay type: cell-based, Fusarium oxisporum, Byssoaclamys fulva, Penicillium sp; settings: 3 weeks at 20°
Protocol: The tests where two components or more components were combined in model drink were carried out in sterile 96-well microtiter plates. Sterile matrix was prepared according recipe of Nestle with increasing quantities of two different inhibitors. The concentrations of each inhibitor were presented in 8 equal concentration steps that ranged from 0 to 1-2 times the (estimated) MIC value of particular mould for a particular inhibitor resulting in 64 different media. 200 μl of each medium was transferred to a panel of a sterile 96-well microtiter plate.
Completed well plates were stored at 4° C. until further use. The data was obtained via optical observation of growth.
Spores of all moulds were collected via the method as described in 2.3. Spores were counted using the Burker-turk method and adjusted to a log 5 per ml in PFZ and mixed to a homologue suspension. This suspension was diluted 100 times for inoculation.
In order to have an idea of the efficacy of the combination of propionate, vanillin and potassium cinnamate in model drink, some experiments were done in microwells plates. These experiments were visually observed after 3 weeks of incubation at 20° and used as pre-application experiments in order to create an expectation for the efficacy of the components in long term application experiments. The data that is shown in table 5 below is divided in “+” and “−”. The “+” means visible growth, while the “−” means no visible growth of the mould cocktail at the specific concentrations. […] However, combined with an amount of nearly 400 ppm of propionate and 75 ppm of vanillin the model drink is stable for at least 3 weeks.

[3] = test system: Byssoaclamys fulva (Bysful2); assay: MEA agar plate colony growth test; assay type: cell-based; settings: single component, agar plates
Protocol: as §1, §2, §3, §4, §5, §6, §7, §8

[4] = test system: pure cultures of moulds; assay: single components and binary combinations on MEA agar plates against pure cultures of moulds (colony diameter); assay type: cell-based, Fusarium oxisporum, Byssoaclamys fulva, Penicillium sp
Protocol: as §1, §2, §3, §4, §5, §6, §7
To convert the growth curves to dose response curves the μ Max (maximum growth rate) was calculated per concentration of antimicrobial component. […]

For `O=C([O-])C=Cc1ccccc1.[K+]` [potassium cinnamate], the “growth of Penicillium” value ([1]; after 100 ppm) was “dramatic increase”, the “inhibition of Penicillium” value ([1]; levels up to 200 ppm) was “not inhibited” and the “inhibition of the growth of the mould cocktail” value ([2]; 350 ppm alone) was “not sufficient”. The “visible growth of mould cocktail” value ([2]; Kcinnamate 0.0050% (w/v)) was “+”, the “visible growth of mould cocktail” value ([2]; Kcinnamate 0.0100% (w/v)) was “+” and the “visible growth of mould cocktail” value ([2]; Kcinnamate 0.0150% (w/v)) was “+”. For the same compound, the “visible growth of mould cocktail” value ([2]; Kcinnamate 0.0200% (w/v)) was “+”, the “visible growth of mould cocktail” value ([2]; Kcinnamate 0.0250% (w/v)) was “+” and the “visible growth of mould cocktail” value ([2]; Kcinnamate 0.0300% (w/v)) was “+”. For the same compound, the “visible growth of mould cocktail” value ([2]; Kcinnamate 0.0350% (w/v)) was “+”.

`CCC(=O)O` [propionate, Propionic acid] was tested, and the “concentration at which Penicillium is inhibited” value [1] was “approximately 0.15%”, the “concentration at which Byssoclamys is inhibited” value [3] was “approximately 0.15%” and the “sensitivity of all moulds to the component” value [4] was “sensitive”.

With `COc1cc(C=O)ccc1O` [vanillin, 4-Hydroxy-3-methoxybenzaldehyde] the “sensitivity of all moulds to the component” value [4] was “sensitive” and the “amount needed for an overall inhibition of all moulds” value ([4]; single component, also printed as 900 ppm) was “approximately 0.09%”.
